ChEMBL document CHEMBL1129846, “Synthesis and antiproliferative activity of 2-O-allyl-1--D-arabinofuranosyl-uracil, -cytosine and -adenine” (Bioorg Med Chem Lett, 1997)

Assays:
Type in all cases: functional, cell-based
[1] = Compound was evaluated for its antiproliferative activity on human T-lymphocyte CEM cells; settings: CCRF-CEM
L1210 = experiment: Tested for its antiproliferative activity on murine leukemia L1210 cells; settings: Mus musculus
[2] = Compound was evaluated for its antiproliferative activity on human T-lymphocyte Molt4/C8 cells; settings: MOLT-4

IC50 (L1210)	SMILES	IC50 [1]	IC50 [2]
> 500 µM	C=CCO[C@H]1[C@H](O)[C@@H](CO)O[C@H]1n1ccc(=O)[nH]c1=O	> 500 µM	> 500 µM
> 200 µM	O=c1ccn([C@@H]2O[C@H](CO)[C@@H](O)[C@H]2O)c(=O)[nH]1 [URIDINE]	> 200 µM	> 200 µM

Further lines, the molecule ahead of its results:

SMILES	IC50 (L1210)	IC50 [1]	IC50 [2]
C=CCO[C@H]1[C@H](O)[C@@H](CO)O[C@H]1n1cnc2c(N)ncnc21	250 µM	72 µM	88 µM
C=CCO[C@H]1[C@H](O)[C@@H](CO)O[C@H]1n1ccc(N)nc1=O	127 µM	127 µM	588 µM
Nc1ccn([C@@H]2O[C@H](CO)[C@@H](O)[C@@H]2O)c(=O)n1 [CYTARABINE]	0.031 µM	0.0037 µM	0.03 µM
Nc1ncnc2c1ncn2[C@@H]1O[C@H](CO)[C@@H](O)[C@@H]1O [VIDARABINE]	14.2 µM	24.8 µM	11.9 µM
